Reference: publication PMC5297703, “R-Flurbiprofen Traps Prostaglandins within Cells by Inhibition of Multidrug Resistance-Associated Protein-4” (International Journal of Molecular Sciences, 2016)
pIC50: −log10 of the molar value.

Biological target: T1, cPLA2α (Homo sapiens, UniProt P47712)
T1 construct: gene PLA2G4A; recombinant, isolated from Sf9 insect cells
T1 sequence (P47712 1-749): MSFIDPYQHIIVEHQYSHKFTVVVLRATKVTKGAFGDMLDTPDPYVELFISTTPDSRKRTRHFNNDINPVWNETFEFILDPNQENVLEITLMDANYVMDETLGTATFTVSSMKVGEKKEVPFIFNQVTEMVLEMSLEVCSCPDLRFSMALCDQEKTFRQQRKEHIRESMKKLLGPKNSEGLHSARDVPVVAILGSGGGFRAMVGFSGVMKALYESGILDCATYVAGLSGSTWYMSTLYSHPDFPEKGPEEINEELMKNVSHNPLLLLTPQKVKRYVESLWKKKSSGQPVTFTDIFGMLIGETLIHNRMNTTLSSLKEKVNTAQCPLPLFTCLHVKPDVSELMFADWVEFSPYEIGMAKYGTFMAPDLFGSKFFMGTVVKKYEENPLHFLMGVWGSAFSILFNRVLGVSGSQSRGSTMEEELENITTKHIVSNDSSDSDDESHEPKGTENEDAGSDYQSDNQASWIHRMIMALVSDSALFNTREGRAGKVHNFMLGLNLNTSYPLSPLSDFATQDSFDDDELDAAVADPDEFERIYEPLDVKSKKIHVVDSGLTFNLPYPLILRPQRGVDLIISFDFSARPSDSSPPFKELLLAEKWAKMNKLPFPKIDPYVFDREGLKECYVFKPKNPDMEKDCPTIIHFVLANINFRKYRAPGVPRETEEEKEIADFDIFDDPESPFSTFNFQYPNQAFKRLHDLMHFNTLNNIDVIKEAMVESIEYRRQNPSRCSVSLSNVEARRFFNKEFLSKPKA
Test: cPLA2α activity assay with PAPC/POG vesicles, arachidonic acid by LC-MS/MS
Assay type: biochemical

C[C@@H](C(=O)O)c1ccc(-c2ccccc2)c(F)c1 [R-flurbiprofen]
pIC50: 3.69
